Measurements reported in patent US20090325959A1 (priority 2008, published 2009).
Where two headings read alike, the source gives them in different places.

Experiments:
Assay type in all cases: biochemical
ROCK1 = target: T1, ROCK1 (Homo sapiens, UniProt Q13464); experiment: Rho kinase inhibition assay (IMAP fluorescence polarization), ROCK1;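 further: kinase reaction run 60 min at room temperature, then phosphorylated substrate captured on IMAP beads for 30 min, with fluorescence polarization read in mP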
T1 construct: purchased Upstate/Chemicon 14-601
T1 sequence (Q13464 17-535 limits assumed): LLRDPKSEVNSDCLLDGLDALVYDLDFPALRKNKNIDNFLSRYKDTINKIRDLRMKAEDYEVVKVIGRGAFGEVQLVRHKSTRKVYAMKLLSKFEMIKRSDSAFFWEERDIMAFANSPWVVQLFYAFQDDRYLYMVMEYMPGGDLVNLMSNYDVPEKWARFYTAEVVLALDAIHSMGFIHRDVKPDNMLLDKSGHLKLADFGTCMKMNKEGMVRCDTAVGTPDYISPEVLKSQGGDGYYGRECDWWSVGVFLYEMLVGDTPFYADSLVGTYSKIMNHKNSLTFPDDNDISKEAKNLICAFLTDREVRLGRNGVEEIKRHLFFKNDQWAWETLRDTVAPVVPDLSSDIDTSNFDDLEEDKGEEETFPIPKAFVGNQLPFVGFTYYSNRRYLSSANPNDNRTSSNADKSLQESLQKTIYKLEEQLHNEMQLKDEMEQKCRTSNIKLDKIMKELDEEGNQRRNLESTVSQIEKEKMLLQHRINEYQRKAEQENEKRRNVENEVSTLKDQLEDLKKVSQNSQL
Experimental: (§1) Following the pre-incubation, 10 μM ATP was added to initiate the reaction. After 60 minutes at room temperature, Molecular Devices IMAP™ binding solution was added to bind phosphorylated substrate. After 30 minutes of incubation in the presence of the IMAP™ beads, the fluorescence polarization was read and the ratio was reported as mP. IC50 values for compounds and EC50 values for ATP were calculated using the Prism software from Graphpad.

Akt3 human enzyme = target: T2, Akt3 human enzyme (Homo sapiens, UniProt Q9Y243); experiment: Akt3 inhibition assay (IMAP FP); conditions: 30 μM ATP; Ki=IC50/(1+([ATP Challenge]/EC50 ATP)); read-out: Akt3 Ki, Avg;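 further: kinase reaction run 60 min at room temperature after 30 µM ATP start, phosphorylated substrate captured on IMAP beads and read as fluorescence polarization (mP)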
T2 construct: purchased Upstate Chemicon 14-502
T2 sequence (Q9Y243 whole entry): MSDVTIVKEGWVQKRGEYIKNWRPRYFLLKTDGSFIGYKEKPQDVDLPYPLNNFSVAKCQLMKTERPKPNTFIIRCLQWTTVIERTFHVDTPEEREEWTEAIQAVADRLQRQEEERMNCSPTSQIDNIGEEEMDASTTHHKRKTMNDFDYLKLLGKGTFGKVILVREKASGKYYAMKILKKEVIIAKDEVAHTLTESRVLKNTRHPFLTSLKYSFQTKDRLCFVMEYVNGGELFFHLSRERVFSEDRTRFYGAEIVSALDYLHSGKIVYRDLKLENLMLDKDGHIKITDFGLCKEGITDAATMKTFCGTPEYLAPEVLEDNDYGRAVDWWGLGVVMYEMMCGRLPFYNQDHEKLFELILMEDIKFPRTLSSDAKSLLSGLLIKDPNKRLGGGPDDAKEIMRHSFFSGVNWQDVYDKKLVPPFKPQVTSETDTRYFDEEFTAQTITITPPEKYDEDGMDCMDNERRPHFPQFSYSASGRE

ROCK2 = target: T3, ROCK2 (Homo sapiens, UniProt O75116); experiment: Rho kinase inhibition assay (IMAP fluorescence polarization), ROCK2;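 further: kinase reaction started with 10 µM ATP and run 60 min at room temperature, then phosphorylated substrate captured on IMAP beads for 30 min and fluorescence polarization read in mP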
T3 construct: purchased Upstate/Chemicon 14-451
T3 sequence (O75116 11-552 limits assumed): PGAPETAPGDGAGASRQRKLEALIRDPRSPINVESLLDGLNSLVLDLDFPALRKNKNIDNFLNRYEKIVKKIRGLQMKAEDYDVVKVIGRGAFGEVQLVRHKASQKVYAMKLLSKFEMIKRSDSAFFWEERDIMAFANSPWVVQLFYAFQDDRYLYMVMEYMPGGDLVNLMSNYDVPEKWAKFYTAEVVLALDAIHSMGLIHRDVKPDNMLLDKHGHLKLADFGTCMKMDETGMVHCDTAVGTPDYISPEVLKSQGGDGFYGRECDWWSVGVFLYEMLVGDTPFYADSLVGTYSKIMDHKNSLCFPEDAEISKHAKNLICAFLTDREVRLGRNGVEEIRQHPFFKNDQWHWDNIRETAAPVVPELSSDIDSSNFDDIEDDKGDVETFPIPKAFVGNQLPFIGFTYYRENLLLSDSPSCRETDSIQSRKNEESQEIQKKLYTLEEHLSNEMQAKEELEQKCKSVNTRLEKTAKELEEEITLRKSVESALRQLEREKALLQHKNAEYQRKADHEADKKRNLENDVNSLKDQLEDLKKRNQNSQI
Experimental: as §1

p70S6K human enzyme = target: T4, p70S6K human enzyme (Homo sapiens, UniProt P23443, T412E); experiment: p70S6K inhibition assay (IMAP FP); conditions: 30 μM ATP; Ki=IC50/(1+([ATP Challenge]/EC50 ATP)); read-out: p70S6K Ki, Avg;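 further: kinase reaction run at room temperature, phosphorylated substrate captured on IMAP beads and read as fluorescence polarization in mP, IC50 then converted to Ki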
T4 construct: purchased Upstate Chemicon 14-486
T4 sequence (P23443 1-421 T412E limits assumed): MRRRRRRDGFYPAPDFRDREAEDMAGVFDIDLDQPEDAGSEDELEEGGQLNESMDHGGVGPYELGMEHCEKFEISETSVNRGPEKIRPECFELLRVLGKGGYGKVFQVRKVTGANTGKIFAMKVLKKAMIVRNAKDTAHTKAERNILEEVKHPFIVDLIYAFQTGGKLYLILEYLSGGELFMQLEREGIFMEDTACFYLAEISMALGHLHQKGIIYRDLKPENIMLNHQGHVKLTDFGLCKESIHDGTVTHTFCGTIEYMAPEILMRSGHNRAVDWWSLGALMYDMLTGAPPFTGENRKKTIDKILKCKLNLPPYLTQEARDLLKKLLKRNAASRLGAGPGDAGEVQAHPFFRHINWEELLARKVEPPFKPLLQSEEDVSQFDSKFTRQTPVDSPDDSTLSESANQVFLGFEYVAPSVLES

[1] = 10 μM ATP, read-out: ROCK2 Ki, Avg

Work on `Fc1ccc(CN2CCC[C@H](Nc3ccc4[nH]ncc4c3)C2)cc1F` [Compound 1.072, (S)-N-(1-(3,4-difluorobenzyl)piperidin-3-yl)-1H-indazol-5-amine] yielded a Ki (ROCK1; Avg, 10 μM ATP) of 33.7 nM, a Ki (Akt3 human enzyme) of 4750 nM and a Ki (ROCK2; [1]) of 5.6 nM. The Ki (p70S6K human enzyme) was 1130 nM.
Work on `Cc1ccc(CN2CCC[C@H](Nc3ccc4[nH]ncc4c3)C2)cc1` [Compound 1.078, (S)-N-(1-(4-methylbenzyl)piperidin-3-yl)-1H-indazol-5-amine] yielded a Ki (ROCK1; Avg, 10 μM ATP) of 36.3 nM, a Ki (Akt3 human enzyme) of 3270 nM and a Ki (ROCK2; [1]) of 3.6 nM. The Ki (p70S6K human enzyme) was 1680 nM.
Work on `NC(=O)Cn1ccc2ccc(CN3CCC[C@@H](Nc4ccc5[nH]ncc5c4)C3)cc21` [Compound 1.106, (R)-2-(6-((3-(1H-indazol-5-ylamino)piperidin-1-yl)methyl)-1H-indol-1-yl)acetamide] yielded a Ki (ROCK1; Avg, 10 μM ATP) of 223 nM, a Ki (Akt3 human enzyme) of 3910 nM and a Ki (ROCK2; [1]) of 15.1 nM. For the same compound, the Ki (p70S6K human enzyme) was 1330 nM.
With `c1ccc(CN2CCC[C@@H](Nc3ccc4[nH]ncc4c3)C2)cc1` [Compound 1.110, (R)-N-(1-benzylpiperidin-3-yl)-1H-indazol-5-amine] the Ki (ROCK1; Avg, 10 μM ATP) was 59 nM, the Ki (Akt3 human enzyme) was 463 nM and the Ki (ROCK2; [1]) was 11.2 nM. For the same compound, the Ki (p70S6K human enzyme) was 1300 nM.
`O=C(COc1cccc(CN2CCC[C@@H](Nc3ccc4[nH]ncc4c3)C2)c1)N1CCOCC1` [Compound 1.127, (R)-2-(3-((3-(1H-indazol-5-ylamino)piperidin-1-yl)methyl)phenoxy)-1-morpholinoethanone] showed a Ki (ROCK1; Avg, 10 μM ATP) of 96.6 nM, a Ki (Akt3 human enzyme) of 975 nM and a Ki (ROCK2; [1]) of 11.2 nM. For the same compound, the Ki (p70S6K human enzyme) was 2070 nM.
`Brc1ccc(CN2CCC[C@H](Nc3ccc4[nH]ncc4c3)C2)cc1` [Compound 1.142, (S)-N-(1-(4-bromobenzyl)piperidin-3-yl)-1H-indazoi-5-amine] gave a Ki (ROCK1; Avg, 10 μM ATP) of 104 nM, a Ki (Akt3 human enzyme) of 8270 nM and a Ki (ROCK2; [1]) of 12 nM. The Ki (p70S6K human enzyme) was 2520 nM.
Compound `c1cc2cc(CN3CCC[C@@H](Nc4ccc5[nH]ncc5c4)C3)ccc2[nH]1` [Compound 1.143, (R)-N-(1-((1H-indol-5-yl)methyl)piperidin-3-yl)-1H-indazol-5-amine] has a Ki (ROCK1; Avg, 10 μM ATP) of 49.7 nM, a Ki (Akt3 human enzyme) of 707 nM and a Ki (ROCK2; [1]) of 12.6 nM. It also gave a Ki (p70S6K human enzyme) of 538 nM.
`Oc1cccc(CN2CCC[C@@H](Nc3ccc4[nH]ncc4c3)C2)c1` [Compound 1.145, (R)-3-((3-(1H-indazol-5-ylamino)piperidin-1-yl)methyl)phenol] gave a Ki (ROCK1; Avg, 10 μM ATP) of 35 nM, a Ki (Akt3 human enzyme) of 1190 nM and a Ki (ROCK2; [1]) of 6.4 nM. It also gave a Ki (p70S6K human enzyme) of 2300 nM.
In the case of `Fc1ccc(CN2CCC[C@@H](Nc3ccc4[nH]ncc4c3)C2)cc1` [Compound 1.146, (R)-N-(1-(4-fluorobenzyl)piperidin-3-yl)-1H-indazol-5-amine], the Ki (ROCK1; Avg, 10 μM ATP) is reported as 39.8 nM, the Ki (Akt3 human enzyme) is reported as 205 nM and the Ki (ROCK2; [1]) is reported as 10.7 nM. For the same compound, the Ki (p70S6K human enzyme) was 742 nM.
Work on `CCc1ccc(CN2CCC[C@H](Nc3ccc4[nH]ncc4c3)C2)cc1` [Compound 1.154, (S)-N-(1-(4-ethylbenzyl)piperidin-3-yl)-1H-indazol-5-amine] yielded a Ki (ROCK1; Avg, 10 μM ATP) of 52.7 nM, a Ki (Akt3 human enzyme) of 4950 nM and a Ki (ROCK2; [1]) of 6.6 nM. It also gave a Ki (p70S6K human enzyme) of 1130 nM.
With `Cc1ccc(CN2CC[C@@H](Nc3cccc4cnccc34)C2)cc1OCC(=O)OC(C)(C)C` [Compound 2.071, (R)-tert-butyl 2-(5-((3-(isoquinolin-5-ylamino)pyrrolidin-1-yl)methyl)-2-methylphenoxy)acetate] the Ki (ROCK1; Avg, 10 μM ATP) was 21.2 nM and the Ki (ROCK2; [1]) was 11.9 nM.
For `OCCn1cc(CN2CC[C@@H](Nc3cccc4cnccc34)C2)c2ccccc21` [Compound 2.072, (R)-2-(3-((3-(isoquinolin-5-ylamino)pyrrolidin-1-yl)methyl)-1H-indol-1-yl)ethanol], the Ki (ROCK1; Avg, 10 μM ATP) was 7.5 nM, the Ki (ROCK1; average Ki) was 7.5 nM and the Ki (ROCK2; [1]) was 4.4 nM. For the same compound, the Ki (ROCK2; average Ki, read-out: ROCK2 Ki) was 4.4 nM.
`Cc1ccc(CN2CC[C@@H](Nc3cccc4cnccc34)C2)cc1OCC(=O)O` [Compound 2.073, (R)-2-(5-((3-(isoquinolin-5-ylamino)pyrrolidin-1-yl)methyl)-2-methylphenoxy)acetic acid] showed a Ki (ROCK1; Avg, 10 μM ATP) of 12.7 nM, a Ki (ROCK1; average Ki) of 12.7 nM and a Ki (ROCK2; [1]) of 4.2 nM. It also gave a Ki (ROCK2; average Ki, read-out: ROCK2 Ki) of 4.2 nM.
In the case of `c1cc(N[C@@H]2CCN(Cc3nc4ccccc4[nH]3)C2)c2ccncc2c1` [Compound 2.074, (R)-N-(1-((1H-benzo[d]imidazol-2-yl)methyl)pyrrolidin-3-yl)isoquinolin-5-amine], the Ki (ROCK1; Avg, 10 μM ATP) is reported as 133 nM and the Ki (ROCK2; [1]) is reported as 36.4 nM.
`Cn1c(CN2CC[C@@H](Nc3cccc4cnccc34)C2)nc2ccccc21` [Compound 2.075, (R)-N-(1-((1-methyl-1H-benzo[d]imidazol-2-yl)methyl)pyrrolidin-3-yl)isoquinolin-5-amine] was tested, and the Ki (ROCK1; Avg, 10 μM ATP) was 123 nM and the Ki (ROCK2; [1]) was 21.7 nM.
Compound `Cc1ccc(CN2CC[C@@H](Nc3cccc4cnccc34)C2)cc1NS(C)(=O)=O` [Compound 2.076] has a Ki (ROCK1; Avg, 10 μM ATP) of 8 nM, a Ki (ROCK1; average Ki) of 8 nM and a Ki (ROCK2; [1]) of 2.4 nM. For the same compound, the Ki (ROCK2; average Ki, read-out: ROCK2 Ki) was 2.4 nM.
Work on `Cc1c(CN2CC[C@@H](Nc3cccc4cnccc34)C2)cccc1NS(C)(=O)=O` [Compound 2.078, (R)-N-(3-((3-(isoquinolin-5-ylamino)pyrrolidin-1-yl)methyl)-2-methylphenyl)methanesulfonamide] yielded a Ki (ROCK1; Avg, 10 μM ATP) of 18.3 nM, a Ki (ROCK1; average Ki) of 18.3 nM and a Ki (ROCK2; [1]) of 2.6 nM. It also gave a Ki (ROCK2; average Ki, read-out: ROCK2 Ki) of 2.6 nM.
Work on `Cc1ccc(CN2CC[C@@H](Nc3cccc4c[n+]([O-])ccc34)C2)cc1OCCO` [Compound 2.080, (R)-5-(1-(3-(2-hydroxyethoxy)-4-methylbenzyl)pyrrolidin-3-ylamino)isoquinoline 2-oxide] yielded a Ki (ROCK1; Avg, 10 μM ATP) of 214 nM and a Ki (ROCK2; [1]) of 126 nM.
`[O-][n+]1ccc2c(N[C@@H]3CCN(Cc4cccc(OCCO)c4)C3)cccc2c1` [Compound 2.081, (R)-5-(1-(3-(2-hydroxyethoxy)benzyl)pyrrolidin-3-ylamino)isoquinoline 2-oxide] was tested, and the Ki (ROCK1; Avg, 10 μM ATP) was 1450 nM and the Ki (ROCK2; [1]) was 1110 nM.
`CSc1nccc(CN2CC[C@@H](Nc3cccc4cnccc34)C2)n1` [Compound 2.082, (R)-N-(1-((2-(methylthio)pyrimidin-4-yl)methyl)pyrrolidin-3-yl)isoquinolin-5-amine] was tested, and the Ki (ROCK1; Avg, 10 μM ATP) was 132 nM, the Ki (ROCK1; average Ki) was 132 nM and the Ki (ROCK2; [1]) was 9 nM. For the same compound, the Ki (ROCK2; average Ki, read-out: ROCK2 Ki) was 9 nM.
`c1cc(N[C@@H]2CCN(Cc3ccncn3)C2)c2ccncc2c1` [Compound 2.083, (R)-N-(1-(pyrimidin-4-ylmethyl)pyrrolidin-3-yl)isoquinolin-5-amine] showed a Ki (ROCK1; Avg, 10 μM ATP) of 1880 nM and a Ki (ROCK2; [1]) of 858 nM.
Work on `c1cc(N[C@@H]2CCN(Cc3cncnc3)C2)c2ccncc2c1` [Compound 2.084, (R)-N-(1-(pyrimidin-5-ylmethyl)pyrrolidin-3-yl)isoquinolin-5-amine] yielded a Ki (ROCK1; Avg, 10 μM ATP) of 1170 nM and a Ki (ROCK2; [1]) of 350 nM.
`c1cnc(CN2CC[C@@H](Nc3cccc4cnccc34)C2)nc1` [Compound 2.085, (R)-N-(1-(pyrimidin-2-ylmethyl)pyrrolidin-3-yl)isoquinolin-5-amine] gave a Ki (ROCK1; Avg, 10 μM ATP) of 2390 nM and a Ki (ROCK2; [1]) of 812 nM.
`c1cc(N[C@@H]2CCN(Cc3cnccn3)C2)c2ccncc2c1` [Compound 2.086, (R)-N-(1-(pyrazin-2-ylmethyl)pyrrolidin-3-yl)isoquinolin-5-amine] gave a Ki (ROCK1; Avg, 10 μM ATP) of 1250 nM and a Ki (ROCK2; [1]) of 358 nM.
`NS(=O)(=O)c1ccc2nc(CN3CC[C@@H](Nc4cccc5cnccc45)C3)[nH]c2c1` [Compound 2.087, (R)-2-((3-(isoquinolin-5-ylamino)pyrrolidin-1-yl)methyl)-1H-benzo[d]imidazole-6-sulfonamide] gave a Ki (ROCK1; Avg, 10 μM ATP) of 896 nM and a Ki (ROCK2; [1]) of 59.3 nM.
`c1cc(N[C@@H]2CCN(Cc3ccsc3)C2)c2ccncc2c1` [Compound 2.088, (R)-N-(1-(thiophen-3-ylmethyl)pyrrolidin-3-yl)isoquinolin-5-amine] showed a Ki (ROCK1; Avg, 10 μM ATP) of 38.7 nM and a Ki (ROCK2; [1]) of 13.6 nM.
For `O=[N+]([O-])c1cc(CN2CC[C@@H](Nc3cccc4cnccc34)C2)cs1` [Compound 2.089, (R)-N-(1-((5-nitrothiophen-3-yl)methyl)pyrrolidin-3-yl)isoquinolin-5-amine], the Ki (ROCK1; Avg, 10 μM ATP) was 102 nM and the Ki (ROCK2; [1]) was 32.9 nM.
Work on `c1csc(CN2CC[C@@H](Nc3cccc4cnccc34)C2)c1` [Compound 2.090, (R)-N-(1-(thiophen-2-ylmethyl)pyrrolidin-3-yl)isoquinolin-5-amine] yielded a Ki (ROCK1; Avg, 10 μM ATP) of 53.3 nM and a Ki (ROCK2; [1]) of 19.5 nM.
`Cc1nc(CN2CC[C@@H](Nc3cccc4cnccc34)C2)c(C)o1` [Compound 2.091, (R)-N-(1-((2,5-dimethyloxazol-4-yl)methyl)pyrrolidin-3-yl)isoquinolin-5-amine] was tested, and the Ki (ROCK1; Avg, 10 μM ATP) was 776 nM and the Ki (ROCK2; [1]) was 237 nM.
For `O=c1[nH]ccc2c(N[C@@H]3CCN(Cc4cccc(OCCO)c4)C3)cccc12` [Compound 2.092, (R)-5-(1-(3-(2-hydroxyethoxy)benzyl)pyrrolidin-3-ylamino)isoquinolin-1(2H)-one], the Ki (ROCK1; Avg, 10 μM ATP) was 1130 nM and the Ki (ROCK2; [1]) was 458 nM.
`Cc1ccc(CN2CC[C@@H](Nc3cccc4c(=O)[nH]ccc34)C2)cc1OCCO` [Compound 2.093, (R)-5-(1-(3-(2-hydroxyethoxy)-4-methylbenzyl)pyrrolidin-3-ylamino)isoquinolin-1(2H)-one] was tested, and the Ki (ROCK1; Avg, 10 μM ATP) was 576 nM and the Ki (ROCK2; [1]) was 128 nM.
`COc1c(CN2CC[C@@H](Nc3cccc4cnccc34)C2)cccc1NS(C)(=O)=O` [Compound 2.096, (R)-N-(3-((3-(isoquinolin-5-ylamino)pyrrolidin-1-yl)methyl)-2-methoxyphenyl)methanesuifonamide] was tested, and the Ki (ROCK1; Avg, 10 μM ATP) was 70.2 nM, the Ki (ROCK1; average Ki) was 70.2 nM and the Ki (ROCK2; [1]) was 9.6 nM. The Ki (ROCK2; average Ki, read-out: ROCK2 Ki) was 9.6 nM.
Compound `COc1ccc(CN2CC[C@@H](Nc3cccc4cnccc34)C2)cc1NS(C)(=O)=O` [Compound 2.098, (R)-N-(5-((3-(isoquinolin-5-ylamino)pyrrolidin-1-yl)methyl)-2-methoxyphenyl)methanesulfonamide] has a Ki (ROCK1; Avg, 10 μM ATP) of 382 nM and a Ki (ROCK2; [1]) of 73.5 nM.
Work on `Cc1ccc(CN2CC[C@@H](Nc3cccc4cnccc34)C2)cc1OCC(N)=O` [Compound 2.099, (R)-2-(5-((3-(isoquinolin-5-ylamino)pyrrolidin-1-yl)methyl)-2-methylphenoxy)acetamide] yielded a Ki (ROCK1; Avg, 10 μM ATP) of 15 nM, a Ki (ROCK1; average Ki) of 15 nM and a Ki (ROCK2; [1]) of 3.8 nM. The Ki (ROCK2; average Ki, read-out: ROCK2 Ki) was 3.8 nM.
